Measurements taken from publication PMC8799869, “D-enantiomers of CATH-2 enhance the response of macrophages against Streptococcus suis serotype 2” (Journal of Advanced Research, 2021).
≈ marks a conversion by molar mass, not a printed value. Like-named read-outs stand apart in the source and are kept apart here. Where a SMILES comes first, the peptide text is derived from it. Where no end group is shown, it is not given here. [ ]: non-standard residue; d: D form.

Tests used:
[1] = test system: S. suis serotype 2 strain D282; assay type: cell-based, Streptococcus suis; conditions: 3 h
Description: (§1) S. suis serotype 2 strains P1/7, D282, S735, and OV625 were grown into mid-logarithmic phase for 3–4 h at 37 °C in THB, after which bacteria were centrifuged at 1200×g for 10 min at 4 °C and resuspended in fresh THB. Bacterial concentration was determined by measuring optical density at 620 nm with an OD of 1.0 being equivalent to 1x10^8 colony forming units (CFU)/mL. 1x10^6 CFU/mL S. suis was mixed with different concentrations of D-CATH-2 and derivatives (0.63 – 40 µM) and incubated for 3 h at 37 °C. Ten-fold dilutions were prepared and spread in Tryptic Soy agar (TSA) plates containing 5% (v/v) defibrinated sheep blood (Oxoid) and colonies were allowed to grow for 48 h. Minimal Bactericidal Concentration (MBC) was defined as ≤100 CFU/mL (2 log CFU/mL), the detection limit of the assay.

[2] = test system: S. suis serotype 2 strain OV625; assay type: cell-based, Streptococcus suis; conditions: 3 h
Description: as §1

[3] = test system: S. suis serotype 2 strain P1/7; assay type: cell-based, Streptococcus suis; conditions: 3 h
Description: as §1

[4] = test system: S. suis serotype 2 strain S735; assay type: cell-based, Streptococcus suis; conditions: 3 h
Description: as §1

[5] = Isothermal titration calorimetry (ITC), peptide binding to LTA; design: species or system S. aureus; conditions: 200 µM peptide titrated into 37.2 µM LTA-SA, MilliQ:dPBS 3:1, 37 °C, three experiments averaged, independent model, read-out: Kd, dissociation coefficient
Description: The interaction between the D-CATH-2 peptides and LTA-SA was tested using isothermal titration calorimetry (ITC). All ITC experiments were performed on a Low Volume NanoITC (TA instruments - Waters LLC, New Castle, USA). Peptide solution or 37.2 µM LTA-SA was prepared in MilliQ:dPBS (Gibco) in a 3:1 ratio. The chamber was filled with 164 µL LTA-SA and the peptide was loaded in the 50 µL syringe. Every 300 s, 1.99 µL peptide was titrated into the chamber at 37 °C. Data was analyzed using the Nano Analyze software (TA instruments-Waters LLC). The data of three experiments was averaged and an independent model was used to determine the peptide-LTA interaction.

murine BMDMs = experiment: BMDM differentiation after peptide exposure at day 1, flow cytometry; assay type: cell-based, mouse; conditions: 1.25 µM peptide at day 1 of culture for 24 h
Description: Murine bone marrow cells, isolated from the femur and tibia of both hindlegs, were stored in fetal calf serum (FCS) (Corning, NY, USA) containing 10% DMSO (Sigma-Aldrich, MO, USA) in liquid nitrogen. Cells were grown at a concentration of 5x10^5 cells/mL in RPMI-1640 without phenol red (Thermo Fisher Scientific, MA, USA) supplemented with 10% FCS and 1% penicillin/streptomycin (Thermo Fisher Scientific). Bone marrow-derived macrophages (BMDM) and bone marrow-derived dendritic cells (BMDC) were cultured by adding 20 ng/mL murine recombinant M−CSF or GM-CSF (PeproTech, NJ, USA) respectively. Where indicated, cells were supplemented with 1.25 µM peptide at day 1, which was replaced by fresh medium at day 2. The medium of all cells was replaced by fresh medium without antibiotics at day 3. At day 6 cells were stimulated with 1 µg/mL LTA from S. aureus (LTA-SA) (Invivogen, CA, USA) or with the different S. suis strains at a multiplicity of infection (MOI) of 0.2. Medium containing S. suis was removed after 2 h and replaced by medium containing 200 µg/mL gentamycin (Sigma) and left for an additional 22 h. After 24 h, medium was collected and stored at −20 °C for cytokine measurements. […] Cells were stained with antibodies (Table 1) for 20 min, washed and measured using aBD FACSCanto-II (BD Biosciences, NJ, USA) and analyzed with FlowJo software (Ashland, OR, USA).

S. suis P1/7 = experiment: In vivo prophylactic S. suis P1/7 infection model; design: species or system mouse
Description: Upon arrival, mice were allowed to acclimatize for at least 7 days before the start of the experiment. The experiment was performed as depicted in Fig. 5A. The experiment was repeated twice to obtain in total 4 mice in the control groups and 12 mice in the infection groups. At day 1, mice were subcutaneously injected in the neck region with 1 mg/kg D-C(1–21) in PBS/cholesterol or with PBS/cholesterol alone. Cholesterol was added 5% v/v, 2 mg/ml in ethanol. The peptide and control groups were blinded to avoid any influence by the researchers. After 24 h (group 1) or after 7 days (group 2), mice were intraperitoneally infected with 10^7 CFU S. suis P1/7 in THB or with THB alone as control. 24 h after infection, a few drops of blood were collected via cheek puncture for bacterial count. During the infection phase of the experiment, mice were checked every 12 h in the acute phase of disease (first 48 h) and thereafter daily until the end of the study. A cumulative clinical score was given to the mice as measure of disease using several parameters as depicted in Table 4, according to Seitz et al.. When a mouse obtained a clinical score of 2 for a minimum of 3 out of 8 scoring points two days in a row, or in case of severe weight loss (>20%), the mouse was euthanized for animal welfare reasons (humane end point (HEP)) and the organs were collected for bacterial counts as described hereafter. Seven days post infection all mice were sacrificed for further analysis. Mice were anesthetized using isoflurane and 1 mL blood was drawn via heart puncture, followed by cervical dislocation. The peritoneum was flushed with 5 mL PBS/0.5 mM EDTA and diluted in 10 mL ice cold PBS/0.5% FCS. Spleen, lungs, liver, lymph nodes (axillary, inguinal, and mesenteric), brain, kidney and bone marrow were collected and stored in ice cold PBS. All organs, except the bone marrow and lymph nodes were weighed using a Sartorius microbalance. The peritoneal lavage (PTL) samples were counted using the Countess II Automated Cell Counter (Invitrogen, CA, USA). The lungs, liver, brain and kidney were meshed through a 40 µm filter (BD Biosciences) with 5 mL PBS to obtain single cell suspensions. Spleen and lymph nodes were digested with digestion buffer (1.5 WU/mL liberase TL grade, 100 Units/ml recombinant DNAse I, both Roche) for 30 min at 37 °C and meshed through a 40 µm filter using 5 mL PBS/0.5 mM EDTA. The red blood cells of the blood and spleen were lysed using an isotonic ammonium chloride buffer (155 mM NH4Cl, 10 mM KHCO3, 0.1 mM EDTA) for 5–10 min on ice, washed 1x with PBS and were resuspended in FACS buffer (PBS/0.5% BSA). Bone marrow samples were flushed out the femur and tibia of both legs with 5 mL PBS and filtered through a 40 µm filter. A sample of the blood, bone marrow, spleen, peritoneal lavage and lymph nodes was taken and stained for 30 min with different antibody panels (Table 1) and measured using the BD FACS Canto-II and analyzed with FlowJo V8. Of the lungs, liver, brain, kidney, spleen and peritoneal lavage samples, a 10-fold serial dilution was prepared and the samples were plated on TSA plates containing 5% (v/v) defibrinated sheep blood. The colonies were allowed to grow for 48 h at 37 °C. The number of colonies were counted, with ≤ 100 CFU/mL (2 log CFU/mL) as detection limit of the assay and calculated as CFU/mg organ.

E. coli = conditions: in ovo administration three days before hatch; cited from earlier work
Text: (§2) In this study injection of D-C(1–21) reduced disease severity and increased the survival rate, although the differ ...

[6] = previously shown; read-out: dissociation coefficient to LPS; cited from earlier work
Description: Inhibition of LPS-induced, and to a lesser extent LTA-induced activation, is a widely studied immunomodulatory aspect of cathelicidins. […] The dissociation coefficient to LTA is with 2–10 µM much higher than previously shown for L-CATH-2 to LPS with a dissociation coefficient of 0.08 µM, [32] indicating a stronger binding to LPS than to LTA. However, since D-CATH-2 was highly efficient at inhibiting LTA-induced activation, it might also be that the inh ...

[7] = intravenous administration; blood and peritoneum; cited from earlier work
Text: as §2

| Compound | MBC [1] [µM] | MBC [2] [µM] | MBC [3] [µM] | MBC [4] [µM] | Kd [5] [µM] | other results |
| --- | --- | --- | --- | --- | --- | --- |
| CC[C@@H](C)[C@@H](NC(=O)[C@@H](CCCCN)NC(=O)[C@@H](CCCNC(=N)N)NC(=O)[C@@H](CC(C)C)NC(=O)[C@@H](Cc1ccccc1)NC(=O)[C@@H](CCCNC(=N)N)NC(=O)CNC(=O)[C@@H](Cc1ccccc1)NC(=O)[C@H](N)CCCNC(=N)N)C(=O)N[C@H](CCCNC(=N)N)C(=O)N[C@H](CCCNC(=N)N)C(=O)N[C@H](Cc1ccccc1)C(=O)N[C@H](CCCNC(=N)N)C(=O)N1CCC[C@@H]1C(=O)N[C@H](CCCCN)C(=O)N[C@@H](C(=O)N[C@@H](C(=O)N[C@@H](C(=O)N[C@@H](C(=O)N[C@@H](C(=O)N[C@H](CCC(N)=O)C(N)=O)[C@H](C)CC)[C@H](C)O)[C@H](C)CC)[C@H](C)O)C(C)C [D-C(1–21)] (H-[dR][dF]G[dR][dF][dL][dR][dK][dI][dR][dR][dF][dR][dP][dK][dV][dT][dI][dT][dI][dQ]-NH2; N-terminus and C-terminus assumed) | 2.5 to 5 | 0.6 to 5 | 2.5 (≈ 6.72 µg/mL) | 2.5 (≈ 6.72 µg/mL) | 10.2 | BMDM differentiation efficiency, percentage of cells expressing F4/80 at day 6 (murine BMDMs): most pronounced; cumulative clinical score (S. suis P1/7; 1 mg/kg s.c., infected 24 h post peptide injection, late stage of disease): small reduction of cumulative clinical score; cumulative clinical score (S. suis P1/7; 1 mg/kg s.c., infected 7 days post peptide injection, acute phase of disease): reduction in cumulative clinical score; survival (S. suis P1/7; 1 mg/kg s.c., infected either 24 h or 7 days post peptide injection): higher chance of survival; bodyweight loss up to 48 h post infection (S. suis P1/7; 1 mg/kg s.c., infected i.p. with 10^7 CFU 24 h or 7 d post peptide injection, same in control mice): approximately 8%; bacteria in the blood 7 days post infection (S. suis P1/7; 24 h D-C(1–21) treated mice): no mice had bacteria left in the bloodstream; number of S. suis positive organs per mouse (S. suis P1/7; 24 h D-C(1–21) treated mice versus untreated, not statistically significant): generally less S. suis positive organs; total CFU counts in organs (S. suis P1/7; 24 h D-C(1–21) treated mice versus untreated, not statistically significant, not found for 7 day treated mice): lower total CFU counts; S. suis bacteria in the bloodstream 24 h post infection (S. suis P1/7; all mice, treated or not): 10^5-10^6 CFU/mL; bacterial counts in organs of mice reaching the HEP (S. suis P1/7; treated mice reaching HEP before the end of the study, especially in the brain): less bacterial counts |
| CC[C@@H](C)[C@@H](NC(=O)[C@@H](CCCCN)NC(=O)[C@@H](CCCNC(=N)N)NC(=O)[C@@H](CC(C)C)NC(=O)[C@@H](Cc1ccccc1)NC(=O)[C@H](N)CCCNC(=N)N)C(=O)N[C@H](CCCNC(=N)N)C(=O)N[C@H](CCCNC(=N)N)C(=O)N[C@H](Cc1ccccc1)C(=O)N[C@H](CCCNC(=N)N)C(=O)N1CCC[C@@H]1C(=O)N[C@H](CCCCN)C(=O)N[C@@H](C(=O)N[C@@H](C(=O)N[C@@H](C(=O)N[C@@H](C(=O)N[C@@H](C(=O)N[C@H](CCC(N)=O)C(N)=O)[C@H](C)CC)[C@H](C)O)[C@H](C)CC)[C@H](C)O)C(C)C [D-C(4–21)] (H-[dR][dF][dL][dR][dK][dI][dR][dR][dF][dR][dP][dK][dV][dT][dI][dT][dI][dQ]-NH2; N-terminus and C-terminus assumed) | 2.5 to 5 | 1.25 to 2.5 | 5 to 10 | 2.5 (≈ 5.82 µg/mL) | 2.12 | – |
| CC[C@@H](C)[C@@H](NC(=O)[C@@H](CCCCN)NC(=O)[C@@H](CCCNC(=N)N)NC(=O)[C@@H](CC(C)C)NC(=O)[C@@H](Cc1ccccc1)NC(=O)[C@@H](CCCNC(=N)N)NC(=O)CNC(=O)[C@@H](Cc1ccccc1)NC(=O)[C@H](N)CCCNC(=N)N)C(=O)N[C@H](CCCNC(=N)N)C(=O)N[C@H](CCCNC(=N)N)C(=O)N[C@H](Cc1ccccc1)C(=O)N[C@H](CCCNC(=N)N)C(=O)N1CCC[C@@H]1C(=O)N[C@H](CCCCN)C(=O)N[C@@H](C(=O)N[C@@H](C(=O)N[C@@H](C(=O)N[C@@H](C(=O)N[C@@H](C(=O)N[C@H](CCC(N)=O)C(=O)NCC(=O)N[C@H](CO)C(=O)N[C@H](C)C(=O)N[C@H](CCCNC(=N)N)C(=O)N[C@H](Cc1ccccc1)C(N)=O)[C@H](C)CC)[C@H](C)O)[C@H](C)CC)[C@H](C)O)C(C)C [D-CATH-2] (H-[dR][dF]G[dR][dF][dL][dR][dK][dI][dR][dR][dF][dR][dP][dK][dV][dT][dI][dT][dI][dQ]G[dS][dA][dR][dF]-NH2; N-terminus assumed) | 2.5 to 5 | 1.25 to 5 | 2.5 to 5 | 1.25 to 2.5 | 3.04 | protection of chickens against infection (E. coli): protects chickens up to 7 days post hatch |
| L-CATH-2: natural chicken cathelicidin-2 (RFGRFLRKIRRFRPKVTITIQGSARF-NH2) | – | – | – | – | – | Kd [6]: 0.08 µM |
| LL-37 | – | – | – | – | – | survival and bacterial load in septic mice [7]: improved the survival and reduced the bacterial load |
